# Assay results: ChEMBL document CHEMBL4811264, “Design and synthesis of novel diosgenin-triazole hybrids targeting inflammation as potential neuroprotective agents” (Bioorg Med Chem Lett, 2021)
# Legend:
# SH-SY5Y [1] = test: Neuroprotective activity against oxygen glucose-deprivation induced toxicity in human SH-SY5Y cells at 10 uM relative to control; format: functional
# RAW264.7 [2] = test: Antiinflammatory activity in mouse RAW264.7 cells assessed as inhibition of LPS-induced NO production at 10 uM relative to control; format: functional
# SH-SY5Y [3] = test: Neuroprotective activity against oxygen glucose-deprivation induced toxicity in human SH-SY5Y cells at […] relative to control; format: functional
# RAW264.7 [4] = test: Cytotoxicity against mouse RAW264.7 cells assessed as decrease in cell viability by MTT assay; format: cell-based
Structure (SMILES),Activity (SH-SY5Y [1]) [%],inhibition at 10 µM (RAW264.7 [2]) [%],Activity (SH-SY5Y [3]) [%],Activity (RAW264.7 [4])
C[C@@H]1CC[C@@]2(OC1)O[C@H]1C[C@H]3[C@@H]4CCc5cc(OCc6cn(Cc7ccc(C(F)(F)F)cc7)nn6)ccc5[C@H]4CC[C@]3(C)[C@H]1[C@@H]2C,66.4,9.5,,
C[C@@H]1CC[C@@]2(OC1)O[C@H]1C[C@H]3[C@@H]4CCc5cc(OCc6cn(Cc7cccc(F)c7)nn6)ccc5[C@H]4CC[C@]3(C)[C@H]1[C@@H]2C,51.6,30.6,,
C[C@@H]1CC[C@@]2(OC1)O[C@H]1C[C@H]3[C@@H]4CCc5cc(OCc6cn(Cc7ccccc7F)nn6)ccc5[C@H]4CC[C@]3(C)[C@H]1[C@@H]2C,12.1,14.2,,
Cc1ccc(-n2cc(COc3ccc4c(c3)CC[C@@H]3[C@@H]4CC[C@]4(C)[C@@H]5[C@H](C[C@@H]34)O[C@]3(CC[C@@H](C)CO3)[C@H]5C)nn2)cc1,3.3,,,
C[C@@H]1CC[C@@]2(OC1)O[C@H]1C[C@H]3[C@@H]4CC=C5C[C@@H](O)CC[C@]5(C)[C@H]4CC[C@]3(C)[C@H]1[C@@H]2C [DISOGENIN],3.5,5.9,,
C[C@@H]1CC[C@@]2(OC1)O[C@H]1C[C@H]3[C@@H]4CCc5cc(OCc6cn(-c7ccccc7)nn6)ccc5[C@H]4CC[C@]3(C)[C@H]1[C@@H]2C,12.1,,,
COc1ccc(Cn2cc(COc3ccc4c(c3)CC[C@@H]3[C@@H]4CC[C@]4(C)[C@@H]5[C@H](C[C@@H]34)O[C@]3(CC[C@@H](C)CO3)[C@H]5C)nn2)cc1,73.9,40.4,,
C[C@@H]1CC[C@@]2(OC1)O[C@H]1C[C@H]3[C@@H]4CCc5cc(OCc6cn(Cc7ccccc7)nn6)ccc5[C@H]4CC[C@]3(C)[C@H]1[C@@H]2C,35.5,23.5,,
CC(=O)N[C@@H](CS)C(=O)O [ACETYLCYSTEINE],,,84.3,
COc1ccc(-n2cc(COc3ccc4c(c3)CC[C@@H]3[C@@H]4CC[C@]4(C)[C@@H]5[C@H](C[C@@H]34)O[C@]3(CC[C@@H](C)CO3)[C@H]5C)nn2)cc1,40.1,9.9,,
C[C@@H]1CC[C@@]2(OC1)O[C@H]1C[C@H]3[C@@H]4CCc5cc(OCc6cn(-c7ccccc7C#N)nn6)ccc5[C@H]4CC[C@]3(C)[C@H]1[C@@H]2C,81.2,,,Toxic
C[C@@H]1CC[C@@]2(OC1)O[C@H]1C[C@H]3[C@@H]4CCc5cc(OCc6cn(Cc7ccc(F)cc7)nn6)ccc5[C@H]4CC[C@]3(C)[C@H]1[C@@H]2C,50.7,19.7,,
CCCn1cc(COc2ccc3c(c2)CC[C@@H]2[C@@H]3CC[C@]3(C)[C@@H]4[C@H](C[C@@H]23)O[C@]2(CC[C@@H](C)CO2)[C@H]4C)nn1,73.9,,,
C[C@@H]1CC[C@@]2(OC1)O[C@H]1C[C@H]3[C@@H]4CCc5cc(OCc6cn(Cc7cc(F)c(F)cc7F)nn6)ccc5[C@H]4CC[C@]3(C)[C@H]1[C@@H]2C,16.5,,,
Cc1ccc(Cn2cc(COc3ccc4c(c3)CC[C@@H]3[C@@H]4CC[C@]4(C)[C@@H]5[C@H](C[C@@H]34)O[C@]3(CC[C@@H](C)CO3)[C@H]5C)nn2)cc1,34.1,35.6,,
C[C@@H]1CC[C@@]2(OC1)O[C@H]1C[C@H]3[C@@H]4CCc5cc(OCc6cn(-c7cc(F)cc(F)c7)nn6)ccc5[C@H]4CC[C@]3(C)[C@H]1[C@@H]2C,71.4,,,
COc1ccc2c(c1)c(CC(=O)O)c(C)n2C(=O)c1ccc(Cl)cc1 [INDOMETHACIN],,34.9,,
C[C@@H]1CC[C@@]2(OC1)O[C@H]1C[C@H]3[C@@H]4CCc5cc(OCc6cn(Cc7ccc(C#N)cc7)nn6)ccc5[C@H]4CC[C@]3(C)[C@H]1[C@@H]2C,57.6,11.9,,
